The conditions of data set [1]: cited from earlier work.
For data set [2] the following is noted: FIG. 6. The source says: FIG. 6 illustrates blood plasma concentrations at various times achieved through various means of delivery. This figure illustrates the time necessary to achieve a particular blood plasma concentration.
The conditions of data set [3]: in vivo; cited from earlier work.
The conditions of data set [4]: in vivo; cited from earlier work. The source holds these as a separate data set.

SMILES strings stand for the structures. Structures can show the parent of a compound that is named as a salt.

With `CN(C)CCC=C1c2ccccc2C=Cc2ccccc21` [Cyclobenzaprine hydrochloride, cyclobenzaprine hydrochloride], the solubility in alcohol entry in data set [1] (alcohol) was “freely soluble”. Besides, the “solubility in hydrocarbon solvents” value in data set [1] (hydrocarbon solvents) was “insoluble”. The solubility in isopropanol entry in data set [1] (isopropanol) is given as “sparingly soluble”. Also, the solubility in water entry in data set [1] (water) is on record as “freely soluble”.
As to `CN(C)CCC=C1c2ccccc2C=Cc2ccccc21` [cyclobenzaprine], in data set [2], the colonic absorption entry is listed as “colonic absorption”. The half-life (in general, the time in which the quantity being followed falls by half) in data set [3] is 24 to 72 h. Moreover, in data set [4], the reported side effects result was “sedation and dry mouth”.

Values taken from US20040166160A1, “Methods and dosage forms with modified viscosity layers” (priority 2003, published 2004).
